Measurements taken from patent publication US12559471B2, “1,5-dihydro-2,4-benzodiazepine-3-one derivative and application thereof” (JIANGSU NHWA PHARMACEUTICAL CO., LTD, priority 2020, dated 2026).
Several values for one entry are separate records, joined by “and”; a condition that tells them apart may be missing. Equal values may be shown once.

Experiments:
[1] = system: DOI-induced PPI impairment in rats; assay: DOI-induced PPI impairment test in rats (intervention test); type: in vivo; details: DOI 0.5 mg/kg
Method: 3. DOI ((f)-1-(2,5-dimethoxy-4-iodophenyl)-2-aminopropane hydrochloride or (f)-2,5-dimethoxy-4-iodoamphetamine hydrochloride) induced PPI impairment effect test in rats
30 min after the intragastric administration of a drug (or a vehicle) and 30 min after the subcutaneous injection of DOI at 0.5 mg/kg at the neck, namely 60 min after the intragastric administration, the rats were placed into a startle reflex test box for testing.
(§1) The test was performed according to literature and preliminary experiments, and the specific process was as follows: first an adaptation period of 5 min was given (62 dB background sound), and 5 separate startle reflex stimuli were given after the adaptation period (blockl, results not included in the analysis to reduce the initial response of the animals to a plateau level), followed by 4 different types of tests (block2) presented in a pseudo-random manner, namely: 1) startle reflex stimulus alone (pulse-alone, 120 dB, lasting 20 ms); 2) prepulse stimulus alone 13 dB above the background sound (prepulse-alone, 75 dB, lasting 20 ms); 3) prepulse stimulus in combination with startle reflex stimulus, each lasting 20 ms, with an interval of 100 ms; and 4) no stimulus in which only the background sound was given (no stimulus). Each trial was performed 5 times, with an average interval of 20 s (10-30 s) between trials.
(§2) The response amplitude of the startle reflex stimulus alone or the prepulse stimulus in combination with startle reflex stimulus was expressed as the AVG (instrument-specific unit) value, which indirectly reflects the size of the flinching response of the rat body. Evaluation index: PPI %=(1−response amplitude of prepulse stimulus in combination with startle reflex stimulus/response amplitude of startle reflex stimulus alone)×100. The higher the value is, the greater the degree of the inhibition is.

C57BL/6j mice = assay: Investigation of sedation side effects (autonomic activity, movement distance); type: in vivo; details: sedation ED50 / PDP efficacy ED50
Method: (§3) 1.3 Investigation of Sedation Side Effects (Anti-Sedation Model)
(§4) According to different doses of each group, solutions at different concentrations were separately formulated for intraperitoneal injection, with the final administration volume of 10 mL/kg.
(§5) The movement at 0-20 min was recorded on video, and the movement distance in 20 min was analyzed by Top Scan 3.00 software. The inhibition rate of each group relative to the blank group after the administration were calculated, and the sedation effects of the compounds were comprehensively evaluated in combination with a statistical conclusion.

[2] = as above; type: in vivo, mice; details: mouse, in vivo, ip; C57BL/6j mice, intraperitoneal, 45 min after administration
Method: as §3, §4, §5

[3] = system: MK-801-induced high activity behavior of mice; assay: Dizocilpine (MK-801)-induced high activity test in mice; type: in vivo; details: Mus musculus, 1 h, intragastric, MK-801 0.3 mg/kg i.p., 60 min, read-out: ED50 for inhibiting the MK-801-induced high activity behavior
Method: 2. Dizocilpine (MK-801)-Induced High Activity Test in Mice 2.1 Test Method
Mice were stratified according to body weight and then randomly divided into a model control group, a blank control group and drug administration groups. After the administration of a test substance (or a control substance), the mice were placed into an autonomous activity test box (a black polyethylene box with the specification of 29 cm×29 cm×30 cm) for adaptation, and injected with MK-801 at 0.3 mg/kg intraperitoneally 1 h after the intragastric administration. The mice were then placed into the autonomous activity test box for video recording for 60 min. Video analysis was performed after the video recording to evaluate the activity of the mice.

[4] = system: MPTP+APO-induced climbing behavior in male mice; assay: MPTP+APO-induced climbing behavior in male mice (DA motor deterioration model); type: in vivo; details: observation in words
Method: 1.2 Effect on MPTP+APO-induced climbing behavior in male mice (DA motor deterioration model) Animals were injected with different doses of MPTP intraperitoneally every morning for 5 consecutive days. […] After the subcutaneous injection, animals were immediately placed into a climbing cage (self-made, a cylindrical cage with the diameter of 13 cm and the height of 15 cm, made of a stainless steel wire mesh with the diameter of about 0.1 cm, the bottom of which is a semitransparent polyethylene plate, and the cage cover of which is a stainless steel cage cover), and the behaviors of animals at minutes 10-11, 20-21 and 30-31 after the APO injection was observed and scored.
Scoring criteria: four feet on the floor scored 0; two forepaws on the cage scored 1; and four feet on the cage scored 2.

PPI in normal rats = PPI in normal rats (dosing test, normal saline instead of DOI); type: in vivo; details: for PPI %, MEAN / PPI %, individual animal: normal saline
Method: as §1
as §2, with “is. Dosing Test:” for “is.”
The DOI at 0.5 mg/kg administered to animals in the above groups was changed to normal saline (NS), and other operations including administration and testing were the same as those in the intervention test.

hERG potassium channel = hERG potassium channel (Homo sapiens (Human), UniProt Q12809); assay: In vitro hERG assay, whole-cell patch clamp in HEK-293 cells; type: cell-based; details: HEK-293 cells stably expressing hERG, room temperature
Chain of hERG potassium channel (Q12809 whole entry): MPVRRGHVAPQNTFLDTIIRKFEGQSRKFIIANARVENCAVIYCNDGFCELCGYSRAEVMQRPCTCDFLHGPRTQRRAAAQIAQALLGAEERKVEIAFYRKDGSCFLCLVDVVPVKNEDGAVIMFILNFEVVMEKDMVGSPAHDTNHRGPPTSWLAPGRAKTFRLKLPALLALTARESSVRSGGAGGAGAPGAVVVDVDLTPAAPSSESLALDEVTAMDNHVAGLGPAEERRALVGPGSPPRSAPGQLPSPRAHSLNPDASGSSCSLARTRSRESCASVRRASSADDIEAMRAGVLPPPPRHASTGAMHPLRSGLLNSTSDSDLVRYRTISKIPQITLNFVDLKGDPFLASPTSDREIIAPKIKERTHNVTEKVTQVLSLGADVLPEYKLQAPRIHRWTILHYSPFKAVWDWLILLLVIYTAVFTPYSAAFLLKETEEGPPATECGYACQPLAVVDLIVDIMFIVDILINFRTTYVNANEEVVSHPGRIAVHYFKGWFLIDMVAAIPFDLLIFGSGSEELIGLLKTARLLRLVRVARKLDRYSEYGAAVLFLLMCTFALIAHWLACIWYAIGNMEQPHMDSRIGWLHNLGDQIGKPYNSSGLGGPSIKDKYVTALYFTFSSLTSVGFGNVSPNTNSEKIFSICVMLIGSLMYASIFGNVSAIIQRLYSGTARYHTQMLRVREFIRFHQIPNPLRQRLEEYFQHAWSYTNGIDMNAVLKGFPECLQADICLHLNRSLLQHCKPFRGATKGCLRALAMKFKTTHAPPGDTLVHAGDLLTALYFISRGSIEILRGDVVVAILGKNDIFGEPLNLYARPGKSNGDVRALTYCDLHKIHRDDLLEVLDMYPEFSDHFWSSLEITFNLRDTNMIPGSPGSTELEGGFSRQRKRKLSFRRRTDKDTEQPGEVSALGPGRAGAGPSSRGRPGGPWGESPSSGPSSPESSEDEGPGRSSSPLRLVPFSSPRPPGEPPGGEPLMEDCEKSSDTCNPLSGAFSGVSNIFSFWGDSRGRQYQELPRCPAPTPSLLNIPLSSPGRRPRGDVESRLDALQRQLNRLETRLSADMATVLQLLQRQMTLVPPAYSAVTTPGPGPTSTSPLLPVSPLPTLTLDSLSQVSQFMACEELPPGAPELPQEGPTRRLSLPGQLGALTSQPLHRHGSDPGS
Method: b. […] The working solutions of the test compounds were ultrasonically treated for 20 min.
The cell suspension was gently pipetted to separate the aggregated cells.
Under an inverted microscope, recording electrodes were controlled by a glass electrode micromanipulator (micromanipulation) to contact with the cell. […] After forming the GΩ seal, a rapid capacitance compensation was given.
Negative control and test compounds flowed through the recording chamber in an ascending order of concentration by gravity perfusion to quickly act on the cells. During the recording, the extracellular fluid was continuously circulated by a vacuum pump. […] Each concentration was allowed to act for 5 min or until the current was stabilized. All experiments were performed at room temperature.
[formula] Basic statistics were calculated for each concentration, including mean, standard deviation (SD), standard error (SE), and replicates (n). The dose-dependent curve was fitted with the following equation and the half maximal inhibitory concentration (IC50) of the test compounds was calculated:
Curve fitting and calculation of IC50 were performed by GraphPad Prism 5.0 software. 5. Experimental Results

5-HT2C receptor = 5-HT2C receptor (Rattus norvegicus (Rat), UniProt P08909); details: read-out: 5-HT2C (Ki value); rat cortex membrane, 3H-Mesulergine
Chain of 5-HT2C receptor (P08909 33-460): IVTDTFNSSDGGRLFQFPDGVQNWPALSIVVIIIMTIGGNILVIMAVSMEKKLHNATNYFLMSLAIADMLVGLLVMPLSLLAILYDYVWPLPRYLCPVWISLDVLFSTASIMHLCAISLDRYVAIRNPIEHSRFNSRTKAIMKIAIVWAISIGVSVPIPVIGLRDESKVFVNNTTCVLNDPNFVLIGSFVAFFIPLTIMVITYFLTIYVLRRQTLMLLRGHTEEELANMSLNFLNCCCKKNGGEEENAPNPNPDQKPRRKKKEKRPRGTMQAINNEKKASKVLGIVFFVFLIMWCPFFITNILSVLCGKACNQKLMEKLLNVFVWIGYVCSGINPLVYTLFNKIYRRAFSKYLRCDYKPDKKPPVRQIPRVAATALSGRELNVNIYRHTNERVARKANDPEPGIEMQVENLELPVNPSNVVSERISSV

CC(C)COc1ccc(CN2Cc3ccc(F)cc3CN(C3CCN(C)CC3)C2=O)cc1 [NH-K-A19005, 8-fluoro-2-(1-methylpiperidin-4-yl)-4-[[4-(2-methylpropoxy)phenyl]methyl]-1,5-dihydro-2,4-benzo diazepine-3-one]
reversal of DOI-induced PPI impairment ([1]; 3 mg/kg, P<0.05): significantly reverse | PPI %, MEAN ([1]; 1 mg/kg intragastric): 40.15% | PPI %, individual animal ([1]; 1 mg/kg intragastric): 55.27% and 13.13% and 49.29% and 40.22% and 11.24% and 71.74% | PPI %, MEAN ([1]; 3 mg/kg intragastric): 42.95% | PPI %, individual animal ([1]; 3 mg/kg intragastric): 36.23% and 53.57% and 36.93% and 47.37% and 45.54% and 61.94% and 38.90% and 23.16% | PPI %, MEAN ([1]; 10 mg/kg intragastric): 52.40% | PPI %, individual animal ([1]; 10 mg/kg intragastric): 86.67% and 28.57% and 78.84% and 65.78% and 63.08% and 0.38% and 52.03% and 43.86% | Ratio of sedation ED50 to PDP efficacy ED50 (C57BL/6j mice): 10.8 | ED50 at 45 min [2]: 20 mg/kg | ED50 [3]: 1.01 mg/kg | motor deterioration (DA mechanism of action) [4]: no motor deterioration is observed | effect on PPI in normal rats (PPI in normal rats; 3 mg/kg): no significant effects were seen | PPI %, MEAN (PPI in normal rats; 1 mg/kg intragastric): 56.40% | PPI %, individual animal (PPI in normal rats; 1 mg/kg intragastric): 80.68% and 15.47% and 49.79% and 52.82% and 71.15% and 68.46% | PPI %, MEAN (PPI in normal rats; 3 mg/kg intragastric): 57.04% | PPI %, individual animal (PPI in normal rats; 3 mg/kg intragastric): 59.36% and 82.61% and 79.48% and 48.75% and 42.42% and 38.56% and 48.95% and 56.22% | PPI %, MEAN (PPI in normal rats; 10 mg/kg intragastric): 73.61% | PPI %, individual animal (PPI in normal rats; 10 mg/kg intragastric): 55.11% and 96.41% and 53.03% and 84.89% and 84.43% and 72.39% and 61.37% and 81.26% | IC50 (hERG potassium channel): 3.17 µM | Ki (5-HT2C receptor): 3.39 nM
